The text below walks through data of PubChem BioAssay AID330 (DTP/NCI, 2004).

“And” between values parts separate entries of the source, which are not always exact repeats. Equal values may be shown once. Inconclusive results and toxic doses are left out.

For this experiment, the system named is P388 leukemia ip, CD2F1 mice, survival T/C. The experiment is described as follows: NCI In Vivo Anticancer Drug Screen. Data for tumor model P388 Leukemia (intraperitoneal) in CD2F1 (CDF1) mice. The conditions noted are these: endpoint: median survival time, higher = longer survival. In outline: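 Mice carrying the transplanted tumor received test compound or vehicle. Survival was recorded in each group, and the value is the treated-group measurement divided by that of the vehicle-treated control group.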

[1] abbreviates: dose: 60.0 mg/kg/injection, schedule: Q01DX005 (ip), vehicle: saline with Tween-80.
Where [2] appears, read: dose: 120.0 mg/kg/injection, schedule: Q01DX005 (ip), vehicle: saline with Tween-80.
Setting [3] is: dose: 50.0 mg/kg/injection, schedule: Q01DX009 (ip), vehicle: saline.
The mark [4] stands for this setting: dose: 200.0 mg/kg/injection, schedule: Q01DX009 (ip), vehicle: saline.
The mark [5] stands for this setting: dose: 100.0 mg/kg/injection, schedule: Q01DX001 (ip), vehicle: Klucel (hydroxypropylcellulose) (HPC).
The mark [6] stands for this setting: dose: 50.0 mg/kg/injection, schedule: Q01DX001 (ip), vehicle: Klucel (hydroxypropylcellulose) (HPC).
The mark [7] stands for this setting: dose: 50.0 mg/kg/injection, schedule: Q01DX005 (ip), vehicle: saline with Tween-80.
Setting [8] is: dose: 100.0 mg/kg/injection, schedule: Q01DX005 (ip), vehicle: saline with Tween-80.
The mark [9] stands for this setting: dose: 200.0 mg/kg/injection, schedule: Q01DX005 (ip), vehicle: saline with Tween-80.
Where [10] appears, read: dose: 25.0 mg/kg/injection, schedule: Q01DX009 (ip), vehicle: saline with Tween-80.
[11] abbreviates: dose: 50.0 mg/kg/injection, schedule: Q01DX009 (ip), vehicle: saline with Tween-80.
The mark [12] stands for this setting: dose: 100.0 mg/kg/injection, schedule: Q01DX009 (ip), vehicle: saline with Tween-80.
[13] abbreviates: dose: 200.0 mg/kg/injection, schedule: Q01DX009 (ip), vehicle: saline with Tween-80.
Setting [14] is: dose: 50.0 mg/kg/injection, schedule: Q01DX009 (ip), vehicle: Klucel (hydroxypropylcellulose) (HPC).
The mark [15] stands for this setting: dose: 100.0 mg/kg/injection, schedule: Q01DX009 (ip), vehicle: Klucel (hydroxypropylcellulose) (HPC).
[16] abbreviates: dose: 200.0 mg/kg/injection, schedule: Q01DX009 (ip), vehicle: Klucel (hydroxypropylcellulose) (HPC).
[17] abbreviates: dose: 12.5 mg/kg/injection, schedule: Q01DX009 (ip), vehicle: saline.
[18] abbreviates: dose: 25.0 mg/kg/injection, schedule: Q01DX009 (ip), vehicle: saline.
Setting [19] is: dose: 100.0 mg/kg/injection, schedule: Q04DX002 (ip), vehicle: saline with Tween-80.
Where [20] appears, read: dose: 200.0 mg/kg/injection, schedule: Q04DX002 (ip), vehicle: saline with Tween-80.
[21] abbreviates: dose: 400.0 mg/kg/injection, schedule: Q04DX002 (ip), vehicle: saline with Tween-80.
Where [22] appears, read: dose: 12.5 mg/kg/injection, schedule: Q01DX009 (ip), vehicle: saline with Tween-80.

On to `Nc1nc(N)c(NS(=O)(=O)c2ccccc2)c(=O)[nH]1`, for which the T/C under setting [1] is 108 % of control; the T/C under setting [2] is 100 % of control; the T/C (dose: 240.0 mg/kg/injection, schedule: Q01DX005 (ip), vehicle: saline with Tween-80) was 105 % of control.

As to `O=C(O)C1[S][Sb]([CH](C(=O)O)[CH](C(=O)O)[Sb]2[S]C(C(=O)O)C(C(=O)O)[S]2)[S]C1C(=O)O` (stereo unspecified), the T/C is 100 % of control under setting [3]; 98 % of control (dose: 100.0 mg/kg/injection, schedule: Q01DX009 (ip), vehicle: saline); 108 % of control under setting [4].

As to `Cc1ccc(S(=O)(=O)N/N=C/c2c(Cl)nc3n2CCS3)cc1`, the T/C runs as follows: under setting [5], 101 % of control; (dose: 200.0 mg/kg/injection, schedule: Q01DX001 (ip), vehicle: Klucel (hydroxypropylcellulose) (HPC)) 94 % of control; (dose: 400.0 mg/kg/injection, schedule: Q01DX001 (ip), vehicle: Klucel (hydroxypropylcellulose) (HPC)) 94 % of control.

Consider `CC1Cc2c([nH]c(=O)n(-c3ccccc3)c2=S)O1` (stereo unspecified), for which the T/C (dose: 25.0 mg/kg/injection, schedule: Q01DX001 (ip), vehicle: Klucel (hydroxypropylcellulose) (HPC)) is 96 % of control; the T/C under setting [6] is 112 % of control; the T/C under setting [5] was 100 % of control.

`CN(CO)N=Nc1ccc(C(F)(F)F)cc1`: the T/C reads like this: under setting [7], 96 % of control; under setting [8], 113 % of control; under setting [9], 113 % of control.

`Cc1cc(NCCN(C(C)C)C(C)C)nc(/N=C(\N)Nc2ccc(Cl)c(C(F)(F)F)c2)n1`: the T/C runs as follows: (dose: 10.0 mg/kg/injection, schedule: Q04DX003 (ip), vehicle: Klucel (hydroxypropylcellulose) (HPC)) 107 % of control and 123 % of control; (dose: 20.0 mg/kg/injection, schedule: Q04DX003 (ip), vehicle: Klucel (hydroxypropylcellulose) (HPC)) 123 % of control.

In the case of `CC(=O)OC(C)N(C(C)=O)c1ncc([N+](=O)[O-])s1` (stereo unspecified), the T/C is 100 % of control under setting [10], 101 % of control under setting [11], 106 % of control under setting [12] and 110 % of control under setting [13].

For the molecule `NC(=S)N/N=C/c1cc(Br)ccc1O`, the T/C was 86 % of control (dose: 100.0 mg/kg/injection, schedule: Q04DX003 (ip), vehicle: saline with Tween-80); 94 % of control (dose: 200.0 mg/kg/injection, schedule: Q04DX003 (ip), vehicle: saline with Tween-80); 112 % of control (dose: 400.0 mg/kg/injection, schedule: Q04DX003 (ip), vehicle: saline with Tween-80).

Regarding `Oc1ccc(C(c2cc3c(cc2O)OCO3)N2CCN(C(c3ccc(O)cc3)c3cc4c(cc3O)OCO4)CC2)cc1` (stereo unspecified), the T/C was 104 % of control (dose: 60.0 mg/kg/injection, schedule: Q01DX005 (ip), vehicle: Klucel (hydroxypropylcellulose) (HPC)); 103 % of control (dose: 120.0 mg/kg/injection, schedule: Q01DX005 (ip), vehicle: Klucel (hydroxypropylcellulose) (HPC)); 100 % of control (dose: 240.0 mg/kg/injection, schedule: Q01DX005 (ip), vehicle: Klucel (hydroxypropylcellulose) (HPC)).

`CC1CCC(C(C)C)C(NC(=O)c2ccc[n+](C)c2)C1` (stereo unspecified): the T/C runs as follows: (dose: 25.0 mg/kg/injection, schedule: Q04DX002 (ip), vehicle: saline) 97 % of control; (dose: 50.0 mg/kg/injection, schedule: Q04DX002 (ip), vehicle: saline) 97 % of control.

Regarding `COc1cccc(/C=N\NC(=O)C(=O)N/N=C\c2cccc(OC)c2O)c1O`, the T/C runs as follows: under setting [14], 86 % of control; under setting [15], 89 % of control; under setting [16], 92 % of control.

For the molecule `N#CC1=C(C#N)Sc2nc3cc(Cl)ccc3nc2S1`, the T/C is, setting by setting: (dose: 6.25 mg/kg/injection, schedule: Q01DX009 (ip), vehicle: saline) 109 % of control; under setting [17], 115 % of control and 95 % of control; under setting [18], 108 % of control; under setting [3], 115 % of control.

As to `Oc1ccc(Nc2ccc(N(CCCl)CCCl)cc2)c2ccccc12`, the T/C is 123 % of control (dose: 6.25 mg/kg/injection, schedule: Q01DX001 (ip), vehicle: Klucel (hydroxypropylcellulose) (HPC)); 192 % of control and 195 % of control under setting [6].

For the molecule `CC1CC[N-]C(N)C1.CC1CC[N-]C(N)C1.[Cl][Pt+2][Cl]` (stereo unspecified), the T/C was 106 % of control (dose: 100.0 mg/kg/injection, schedule: Q01DX001 (sc), vehicle: olive oil, sesame oil, peanut oil); 106 % of control (dose: 200.0 mg/kg/injection, schedule: Q01DX001 (sc), vehicle: olive oil, sesame oil, peanut oil); 107 % of control (dose: 400.0 mg/kg/injection, schedule: Q01DX001 (sc), vehicle: olive oil, sesame oil, peanut oil).

Take `COC1NC(=O)N(C(C)C)C1(C)C` (stereo unspecified): the T/C under setting [17] is 101 % of control; the T/C under setting [18] is 101 % of control; the T/C under setting [3] was 100 % of control and 97 % of control; the T/C under setting [4] was 107 % of control.

For the molecule `CC1(C)CC(=O)C(C2=NCCCC2)=C(O)C1`, the T/C by setting is: under setting [19], 102 % of control; under setting [20], 100 % of control; under setting [21], 100 % of control.

As for `Cc1nc(-c2ccccc2)c2c(C)[nH]c(-c3ccccc3)c2n1`, the T/C runs as follows: under setting [14], 110 % of control; under setting [15], 112 % of control; under setting [16], 104 % of control.

`O=C(O)/C=C/C(=O)N1Cc2cc3ccccc3nc2C1`: the T/C is, setting by setting: (dose: 1.56 mg/kg/injection, schedule: Q01DX009 (ip), vehicle: saline with Tween-80) 100 % of control and 101 % of control and 104 % of control; (dose: 3.13 mg/kg/injection, schedule: Q01DX009 (ip), vehicle: saline with Tween-80) 99 % of control and 103 % of control and 117 % of control; (dose: 6.25 mg/kg/injection, schedule: Q01DX009 (ip), vehicle: saline with Tween-80) 101 % of control and 94 % of control; (dose: 8.0 mg/kg/injection, schedule: Q01DX009 (ip), vehicle: saline with Tween-80) 91 % of control; under setting [22], 98 % of control and 99 % of control and 107 % of control; (dose: 16.0 mg/kg/injection, schedule: Q01DX009 (ip), vehicle: saline with Tween-80) 94 % of control. The T/C is, setting by setting: (dose: 32.0 mg/kg/injection, schedule: Q01DX009 (ip), vehicle: saline with Tween-80) 99 % of control; (dose: 64.0 mg/kg/injection, schedule: Q01DX009 (ip), vehicle: saline with Tween-80) 94 % of control.

In the case of `CC(C)CNN(CC(C)C)C(N)=O`, the T/C under setting [12] was 102 % of control and the T/C under setting [13] is 105 % of control.

Regarding `O=C(CCl)Nc1ccc(Cl)cc1C(=O)c1ccccc1`, the T/C was 107 % of control under setting [11], 98 % of control under setting [12] and 104 % of control under setting [13].

Regarding `CCCCCCCCCCCCCCCC[N+]1([O-])CCOCC1`, the T/C is 105 % of control under setting [22], 102 % of control under setting [10] and 102 % of control under setting [11].

`CC1CC2(CC(CN(C3CCCCC3)C3CCCCC3)OC2=O)C(=O)O1` (stereo unspecified): the T/C runs as follows: under setting [7], 104 % of control; under setting [8], 102 % of control; under setting [9], 96 % of control.

As to `CN1c2cccc[c]2[Sn]([CH3])([CH3])[c]2ccccc21`, the T/C is, setting by setting: (dose: 30.0 mg/kg/injection, schedule: Q01DX005 (ip), vehicle: saline with Tween-80) 115 % of control; under setting [1], 113 % of control and 123 % of control; under setting [2], 124 % of control.

For the molecule `O=C(O)Cc1c[nH]c2cc(Cl)cc(Cl)c12`, the T/C is 101 % of control under setting [19], 104 % of control under setting [20] and 101 % of control under setting [21].
